Source: ChEMBL document CHEMBL1129703, “Lipophilic bioisosteres of nucleoside triphosphates” (Bioorg Med Chem Lett, 1996)

Assays:
C8166 [1] = assay: Anti-HIV activity against HIV-1 infected C8166 cell lines; assay type: functional, cell-based, Human immunodeficiency virus 1
C8166 [2] = assay: Cytotoxicity in C8166 cell lines; assay type: functional, Homo sapiens
CCRF-CEM [3] = assay: Concentration required to reduce cell viability of CEM/0 cells by 50%; assay type: functional; details: Homo sapiens
CCRF-CEM [4] = assay: Anti-HIV activity against HIV-1 infected CEM/0 cell lines.; assay type: functional, cell-based; details: Homo sapiens
CCRF-CEM [5] = assay: Anti-HIV activity against HIV-2 infected CEM/0 cell lines.; assay type: functional, cell-based; details: Homo sapiens
JM1 [6] = assay: Concentration required to reduce cell viability of JM cells by 50%; assay type: functional, Homo sapiens
JM1 [7] = assay: Anti-HIV activity against HIV-1 infected JM cell lines; assay type: functional, cell-based
[8] = target: Human immunodeficiency virus type 1 reverse transcriptase (Human immunodeficiency virus 1, UniProt Q72547); assay: Inhibition of HIV-1 reverse transcriptase
CEM-TK(-) = assay: Anti-HIV activity against HIV-2 infected CEM/TK- cell lines.; details: Homo sapiens
C8166 [9] = assay: Concentration of compound required to reduce cell viability of C8166 cells by 50%; assay type: functional; details: Homo sapiens
MT2 [10] = assay: Concentration required to reduce cell viability of MT2 cells by 50%; assay type: functional; details: Homo sapiens
MT2 [11] = assay: Anti-HIV activity against HIV-2 infected MT2 cell lines; assay type: functional, cell-based, Homo sapiens

Row | Compound | EC50 (C8166 [1]; Homo sapiens, C8166) | EC50 (CCRF-CEM [4]) | EC50 (CCRF-CEM [5]) | EC50 (JM1 [7]; Homo sapiens, JM1) | IC50 [8] | EC50 (CEM-TK(-)) | EC50 (MT2 [11]; Homo sapiens, MT2) | EC50 (C8166 [1]; c8166) | EC50 (JM1 [7]; jm1) | EC50 (MT2 [11]; mt2) | CC50 (C8166 [2]; Homo sapiens, C8166) | CC50 (CCRF-CEM [3]) | CC50 (JM1 [6]; Homo sapiens, JM1) | CC50 (C8166 [9]) | CC50 (MT2 [10]) | CC50 (C8166 [2]) | CC50 (JM1 [6])
1 | CSCO[C@@]1(C)CO[C@](C)(CC(=O)OC[C@H]2O[C@@H](N3C=C(C)CNC3=O)C[C@@H]2O)C1 | 16 µM | 6 µM | 3.1 µM | 200 µM | > 100 µM | > 250 µM | – | – | – | – | – | > 250 µM | 400 µM | 400 µM | – | – | –
2 | CC1=CN([C@H]2C[C@H](O)[C@@H](COC(=O)C[C@@]3(C)C[C@@](C)(O)CO3)O2)C(=O)NC1 | 8 µM | – | – | 40 µM | – | – | 4 µM | – | – | – | > 500 µM | – | > 500 µM | – | > 1000 µM | – | –
3 | CSCOC1(C)COC(C)(CC(=O)OC[C@H]2O[C@@H](n3cc(C)c(=O)[nH]c3=O)C[C@@H]2N=[N+]=[N-])C1 (some centres undefined) | 0.32 µM | 0.2 µM | 0.14 µM | 100 µM | > 100 µM | > 250 µM | – | – | – | – | – | 233 µM | 500 µM | 500 µM | – | – | –
4 | CSCOC1(C)COC(C)(CC(=O)NC[C@@H]2C=C[C@H](n3cc(C)c(=O)[nH]c3=O)O2)C1 (some centres undefined) | 400 µM | – | – | 500 µM | – | – | 200 µM | – | – | – | > 1000 µM | – | > 1000 µM | – | > 1000 µM | – | –
5 | CSCOC1(C)COC(C)(CC(=O)O)C1 (centres undefined) | > 1000 µM | > 250 µM | > 250 µM | > 1000 µM | > 100 µM | > 250 µM | – | – | – | – | > 1000 µM | > 250 µM | > 1000 µM | – | – | – | –
6 | Cc1cn([C@H]2C=C[C@@H](CNC(=O)CC3(C)CC(C)(O)CO3)O2)c(=O)[nH]c1=O (stereo in doubt; form 1) | 500 µM | – | – | – | – | – | 500 µM | – | 200 µM | – | > 500 µM | – | > 500 µM | – | > 500 µM | – | –
7 | Cc1cn([C@H]2C=C[C@@H](CNC(=O)CC3(C)CC(C)(O)CO3)O2)c(=O)[nH]c1=O (stereo in doubt; form 2) | – | – | – | – | – | – | – | > 500 µM | 500 µM | > 500 µM | – | – | – | – | – | – | –

More lines, main results first:

Row | EC50 (C8166 [1]; Homo sapiens, C8166) | EC50 (CCRF-CEM [4]) | EC50 (CCRF-CEM [5]) | EC50 (JM1 [7]; Homo sapiens, JM1) | IC50 [8] | EC50 (CEM-TK(-)) | EC50 (MT2 [11]; Homo sapiens, MT2) | EC50 (C8166 [1]; c8166) | EC50 (JM1 [7]; jm1) | EC50 (MT2 [11]; mt2) | Compound | CC50 (C8166 [2]; Homo sapiens, C8166) | CC50 (CCRF-CEM [3]) | CC50 (JM1 [6]; Homo sapiens, JM1) | CC50 (C8166 [9]) | CC50 (MT2 [10]) | CC50 (C8166 [2]) | CC50 (JM1 [6])
8 | 200 µM | 200 µM | 88 µM | 200 µM | > 100 µM | > 250 µM | – | – | – | – | CSCO[C@@]1(C)CO[C@@](C)(CC(=O)OC[C@H]2O[C@@H](n3cc(C)c(=O)[nH]c3=O)C[C@@H]2O)C1 | 1000 µM | > 250 µM | 400 µM | – | – | – | –
9 | 16 µM | > 10 µM | > 10 µM | 16 µM | > 100 µM | – | – | – | – | – | CSCO[C@@]1(C)CO[C@@](C)(CC(=O)OC[C@H]2O[C@@H](n3cc(C)c(=O)[nH]c3=O)C[C@@H]2O[Si](C)(C)C(C)(C)C)C1 | 80 µM | 36 µM | 80 µM | – | – | – | –
10 | > 1000 µM | – | – | 500 µM | – | – | 1000 µM | – | – | – | Cc1cn([C@H]2C[C@H](O)[C@@H](COC(=O)C[C@@]3(C)C[C@@](C)(O)CO3)O2)c(=O)[nH]c1=O | > 1000 µM | – | > 1000 µM | – | > 1000 µM | – | –
11 | 16 µM | – | – | 20 µM | – | – | – | – | – | – | Cc1cn([C@H]2C[C@H](O[Si](C)(C)C(C)(C)C)[C@@H](CO)O2)c(=O)[nH]c1=O | 400 µM | – | 400 µM | – | – | – | –
12 | – | – | – | – | – | – | – | 0.04 µM | 200 µM | – | Cc1cn([C@H]2C[C@H](N=[N+]=[N-])[C@@H](COC(=O)CC3(C)CC(C)(O)CO3)O2)c(=O)[nH]c1=O (stereo in doubt; 13) | – | – | – | – | – | 500 µM | 1000 µM
13 | 20 µM | – | – | 20 µM | – | – | 20 µM | – | – | – | Cc1cn([C@H]2C[C@H](O[Si](C)(C)C(C)(C)C)[C@@H](COC(=O)CC3(C)CC(C)(O)CO3)O2)c(=O)[nH]c1=O (stereo in doubt; form 1) | 200 µM | – | 200 µM | – | 200 µM | – | –
14 | – | – | – | – | – | – | – | 0.064 µM | 100 µM | 0.064 µM | Cc1cn([C@H]2C[C@H](N=[N+]=[N-])[C@@H](COC(=O)CC3(C)CC(C)(O)CO3)O2)c(=O)[nH]c1=O (stereo in doubt; form 1) | – | – | – | – | – | – | > 1000 µM
15 | – | – | – | – | – | – | – | 10 µM | 10 µM | 10 µM | Cc1cn([C@H]2C[C@H](O[Si](C)(C)C(C)(C)C)[C@@H](COC(=O)CC3(C)CC(C)(O)CO3)O2)c(=O)[nH]c1=O (stereo in doubt; form 2) | – | – | – | – | – | – | –
16 | – | – | – | – | – | – | – | 8 µM | 400 µM | 4 µM | Cc1cn([C@H]2C[C@H](N=[N+]=[N-])[C@@H](COC(=O)CC3(C)CC(C)(O)CO3)O2)c(=O)[nH]c1=O (stereo in doubt; form 2) | > 1000 µM | – | – | – | > 1000 µM | – | 400 µM
17 | – | – | – | 200 µM | > 100 µM | > 250 µM | – | – | – | – | Cc1cn([C@H]2C[C@H](N=[N+]=[N-])[C@@H](CO)O2)c(=O)[nH]c1=O [ZIDOVUDINE] | > 1000 µM | > 250 µM | > 1000 µM | – | – | – | –
